The record followed here is PubChem BioAssay AID1963597 (National Center for Advancing Translational Sciences (NCATS), 2024).

Broadly, the half-life is the time in which the quantity being followed falls by half.

The series deals with human liver microsomes, metabolic stability half-life. The series can be described thus: NCATS Human Liver Microsomal (HLM) Stability Profiling. To be noted: higher = more stable; screened at 1 µM (by protocol). The source says:
Assay submitter (PI): Dr. Pranav Shah
NIH Center for Advancing Translational Sciences
Pharmacokinetic issues were the leading cause of drug attrition, accounting for approximately 40% of all cases before the turn of the century. To this end, several high-throughput in vitro assays like microsomal stability have been developed to evaluate the pharmacokinetic profiles of compounds in early stages of drug discovery. At NCATS, a single-point rat liver microsomal (RLM) stability assay is used as a Tier I assay, while human liver microsomal (HLM) stability is employed as a Tier II assay. While it is beneficial to have compound libraries screened for HLM stability, the increasing magnitude of hits routinely generated, and the time- and re-source-intensive nature of the assay makes it important to find alternatives. One strategy is to rely on in silico models that have been developed using data generated from these assays. Herein, we describe the development of an HLM stability prediction model using our in-house dataset of ~7,000 compounds, employing both traditional and advanced machine learning methods. Additionally, the strong correlation between our RLM and HLM data was further reinforced by the fact that our HLM model performance improved after adding RLM stability predictions as an input descriptor. […] The best model along with a subset of our dataset has been made publicly accessible on the NCATS@ADME website for the benefit of the greater drug discovery community.
Microsomal Stability Assay
The substrate depletion method, also called the in vitro t1/2 method was used to analyze test compounds. Incubation and liquid handling were carried out using a previously described method (Shah et al., 2016). Briefly, each reaction mixture (110 µL) consisted of a test article (1 µM), human liver microsomes (0.5 mg/mL), and NADPH regenerating system in phosphate buffer at pH 7.4. Samples were incubated in 384-well plates at 37 degrees C for 0, 5, 10, 15, 30 and 60 min. At each time point, 10 µL of the incubation mixture was aspirated into another 384-well plate which contained cold acetonitrile (ACN) with internal standard (albendazole). All plates were centrifuged at 3000 rpm for 20 min at 4 degrees C, and the supernatants were transferred to a 384-well injection plate. Sample quantification and analysis was performed using a previously described method (Shah et al., 2016, Siramshetty et al., 2020).
1: Shah, P. et al. An Automated High-Throughput Metabolic Stability Assay Using an Integrated High-Resolution Accurate Mass Method and Automated Data Analysis Software. Drug Metab Dispos 44, 1653-1661 (2016).
2: Siramshetty et al. Retrospective assessment of rat liver microsomal stability at NCATS: data and QSAR models. Sci Rep 26;10(1):20713 (2020).
As to `O=C(Nc1cccc(-c2nc3cc(Cl)ccc3o2)c1)c1ccccc1`, the half-life was 5.41 min.

Molecule `CC1(C)O[C@H]2CC(=O)OC[C@]23[C@H]2CC[C@@]4(C)[C@H](c5ccoc5)OC(=O)[C@H]5O[C@]54[C@]2(C)C(=O)C[C@@H]13` returned a half-life of 13.4 min.

Consider `CCOP(=S)(OCC)Oc1nc(Cl)c(Cl)cc1Cl`, for which the half-life worked out at 1.81 min.

`Cn1cc(-c2ccc3nnc(Sc4ccc5nn(C)cc5c4)n3n2)cn1` displayed a half-life greater than 120 min.

In turn, `Clc1ccc(C2(c3ccc(-c4cn[nH]c4)cc3)CCNCC2)cc1` came in with a half-life greater than 120 min.

In turn, `CC1COC2(c3ccccc3Cl)c3cc(Cl)ccc3NC(=O)CN12` (configuration not stated) registered a half-life of 9.03 min.

Consider `Cc1ccc(NC(=O)c2cccc(N(C)C)c2)cc1NC(=O)c1ccc(O)cc1`, for which the half-life worked out at 18.9 min.

Molecule `O=C(O)c1ccccc1NCCc1ccccc1` registered a half-life of 23.8 min.

`Cc1ccc2c(c1)C(=O)[C@]1(O)CCN(c3ccccc3)C1=N2` yielded a half-life of 1.71 min.

Regarding `O=C(Nc1cccc(-c2nc3ccccc3o2)c1)c1ccccc1Cl`, the half-life turned out to be 9.1 min.

For the molecule `CC1(COc2ccc3c(c2)ncn3-c2ccc3cccc(N4CCC(N)CC4)c3n2)COC1`, the half-life was 75.4 min.

Consider `NC(=O)c1ccc(F)c2c1C[C@@H](N(C1CCC1)C1CCC1)CO2`, for which the half-life was 15 min.

Turning to `COc1cccc(C(=O)Nc2ccc3ncnc(N4CCCCC4)c3c2)c1`, the half-life was found to be 5.03 min.

As to `CCCCNc1ncc2c(-c3ccc(F)cc3)nn(CC3CCC(N)CC3)c2n1` (configuration not stated), the half-life is greater than 120 min.

Turning to `Cc1cc2c(F)c(Oc3ncnn4cc(OCC(C)OC(=O)C(C)N)c(C)c34)ccc2[nH]1` (configuration not stated), the half-life came out at 1.26 min.

As to `CCOc1cccc(NC(=O)c2ccc(N3CCCC3)c(C(F)(F)F)c2)c1`, the half-life worked out at 23 min.

In the case of `CCSC(=O)N1CCCCCC1`, the half-life stood at 27.7 min.

`Cc1ccc2c(c1)c1c3n2CCNC3CCC1` (configuration not stated) displayed a half-life of 8.9 min.

`CC(C)(C)NCC(O)COc1cccc2c1CCC(=O)N2` (configuration not stated) yielded a half-life greater than 120 min.

For `COc1ccccc1N1CCN(c2csc3ccc(Cl)cc3c2=O)CC1`, the half-life is 15.7 min.

In turn, `CN1[C@@H]2CC[C@H]1CC(OC(=O)c1c[nH]c3ccccc13)C2` (some centres not stated) came in with a half-life greater than 120 min.

On to `CCCN(CCC)CCc1cccc2c1CC(=O)N2`, for which the half-life is greater than 120 min.

As for `N#Cc1cccc(CN2CC(COc3ccccc3)C3(C2)CN(c2ccccc2)C3)c1` (configuration not stated), the half-life was found to be 3.65 min.

In turn, `Nc1cccc(CNC(=O)c2ccc(Oc3ccc(OCc4cccc(F)c4)cc3)nc2)c1` displayed a half-life of 29.7 min.

The molecule `CCOCCCNC(=O)C(=O)Nc1c2c(nn1-c1ccc(OC)cc1)CSC2` came in with a half-life of 42.3 min.

`Cc1ccccc1-n1c([C@H](C)Nc2nc(N)nc3nc[nH]c23)nc2cccc(C)c2c1=O` yielded a half-life of 103 min.

For the molecule `CC(C)(C)CC(=O)OCC(=O)[C@@]1(O)CC[C@H]2[C@@H]3CCC4=CC(=O)C=C[C@]4(C)[C@H]3[C@@H](O)C[C@@]21C`, the half-life came to 2.13 min.

`COc1ccc(Oc2c(Cl)cnn(-c3cc(C)cc(C)c3)c2=O)cc1` yielded a half-life of 17.4 min.

`O=C(Nc1ncc([N+](=O)[O-])s1)c1cccs1` yielded a half-life of 29 min.

In the case of `CCOC(=O)C1=Cc2ccc(C(F)(F)C(F)(F)F)cc2N=C(N)C1`, the half-life came out at 9.93 min.

On to `CN(C)[C@@H]1C(=O)C(C(N)=O)=C(O)[C@@]2(O)C(=O)C3=C(O)c4c(O)ccc(Cl)c4[C@@H](O)[C@H]3C[C@@H]12`, for which the half-life is greater than 120 min.

On to `O=C(NCc1ccco1)c1ccc2c(c1)N(Cc1cccc(Cl)c1)C(=O)c1ccccc1S2=O` (configuration not stated), for which the half-life was 0.62 min.

The molecule `CCC(=C(c1ccccc1)c1ccc(OCCN(C)C)cc1)c1ccccc1` yielded a half-life of 94.5 min.

In turn, `COc1ccc(-c2cc3onc(-c4ccncc4)c3c(=O)n2C)cc1` registered a half-life greater than 120 min.

In turn, `Cc1c(Cl)ccc2sc(N3CCN(C(=O)CS(=O)(=O)c4ccccc4)CC3)nc12` yielded a half-life of 61.2 min.

Molecule `COc1ccc(C(CN(C)C)C2(O)CCCCC2)cc1` (configuration not stated) returned a half-life greater than 120 min.

In turn, `CCCn1cnc2c1c(=O)n(CCCCC(C)=O)c(=O)n2C` registered a half-life greater than 120 min.

Regarding `COC(=O)C1=C(C)NC(C)=C(C(=O)O[C@@H]2CCCN(Cc3ccccc3)C2)[C@@H]1c1cccc([N+](=O)[O-])c1`, the half-life amounted to 1.93 min.

Molecule `CC1=C(C(=O)Nc2cccc(-c3ccn[nH]3)c2)C(c2ccccc2Cl)N=C(Nc2nc3ccccc3o2)N1` (configuration not stated) had a half-life of 71.5 min.

In turn, `CC(=O)[C@H]1CC[C@H]2C3CC=C4C[C@@H](O)CC[C@]4(C)C3CC[C@]12C` (some centres not stated) displayed a half-life of 106 min.

With `c1ccc(OCc2ccc(CCCN3CCOCC3)cc2)cc1`, the half-life amounted to 26.7 min.

The molecule `CCC1=c2cc(OC(=O)N3CCC(N4CCCCC4)CC3)ccc2=NC2=C3C=C4C(COC(=O)[C@]4(O)CC)C(=O)N3CC21` (some centres not stated) gave a half-life greater than 120 min.

In the case of `O=C(c1ccc(F)cc1)C1CCN(CCn2c(=S)[nH]c3ccccc3c2=O)CC1`, the half-life is 8.98 min.

As to `NC(=O)c1cnc(N[C@@H]2CCCC[C@H]2N)nc1Nc1cccc(-n2nccn2)c1`, the half-life was 90.7 min.

In the case of `O=C(CSc1nc2ccccc2n1Cc1cccc(Cl)c1)N1CCN(c2ccc(F)cc2)CC1`, the half-life is 0.81 min.

In turn, `COCc1c(Cl)ccc2c1CC[C@H]2c1ncc[nH]1` showed a half-life of 115 min.

For `CCC1(O)CC2c3cc(OC)c(OC)cc3CCN2CC1CC(C)C` (configuration not stated), the half-life was greater than 120 min.

Molecule `CC(C)(C)NCc1cc(Nc2ccnc3cc(Cl)ccc23)c2c(c1O)CCCC2` gave a half-life greater than 120 min.

`CCCCCCCCC(=O)NCc1ccc(O)c(OC)c1` gave a half-life of 3.71 min.

`COc1ccc([C@@H]2Sc3ccccc3NC(=O)[C@@H]2O)cc1`: the half-life was 67.5 min.

`COc1ccncc1C(=O)NC(=O)Nc1ccc(-c2ccccc2)c(C(F)(F)F)c1`: the half-life was greater than 120 min.

`CC(=O)N1CCN([C@H]2CCN(C(=O)N(C)[C@H](C)c3cc(C(F)(F)F)cc(C(F)(F)F)c3)[C@@H](c3ccc(F)cc3C)C2)CC1` registered a half-life of 12.8 min.

In turn, `COc1ccc(-c2cc(=S)ss2)cc1` returned a half-life of 0.73 min.

The molecule `COc1ccc2cc(OCC3(C(=O)O)CN(C(=O)c4ccc(F)cc4)C3)ccc2c1` had a half-life of 8.64 min.

Take `CCOc1ccc(Nc2nc(C)c(NC(=O)c3ccc(C)cc3)c(Nc3ccc(OCC)cc3)n2)cc1`: the half-life stood at 12.2 min.

With `O=c1c(N2CCN(c3cccc(Cl)c3)CC2)csc2ccc(Cl)cc12`, the half-life stood at 12.8 min.

For `COc1ccc(C(=O)NC2CCN(c3cnn(CC4CC4)c(=O)c3)CC2)c(OC)n1`, the half-life was greater than 120 min.

Molecule `COc1cc2cc(CN3CCC(N(C)C)C3)c(-c3cccc(Cl)c3)nc2cc1OC` (configuration not stated) returned a half-life greater than 120 min.

On to `O=C1NC(=Nc2ccccc2F)S/C1=C\c1ccc(C(=O)O)cc1`, for which the half-life was determined as 52.4 min.

`COc1ccc(Cn2c(SCC(=O)N3CCN(c4ccc(F)cc4)CC3)nc3ccccc32)cc1` had a half-life of 2.2 min.

Take `CCCCOCCOC(=O)c1cccnc1`: the half-life turned out to be 0.66 min.

Turning to `Fc1ccccc1-c1nc2ccn(Cc3ccc(-c4ccc(C(F)(F)F)cc4C(F)(F)F)nn3)cc-2n1`, the half-life is greater than 120 min.

Molecule `OCCN1CCN(CC/C=C2/c3ccccc3Sc3ccc(C(F)(F)F)cc32)CC1` had a half-life of 48.4 min.

With `Cc1ccc(C(C)(O)c2nc3ccccc3s2)c(C)c1` (configuration not stated), the half-life was 4.22 min.

The molecule `CC(C)CC(N(C)C)C1(c2ccc(Cl)cc2)CCC1` (configuration not stated) yielded a half-life of 3.57 min.

In the case of `CC1(c2ccccc2)N(Cc2ccccc2)C(=O)OC12CCN(Cc1cccc(C#N)c1)CC2` (configuration not stated), the half-life was 2.04 min.

Turning to `COc1cc(Nc2nc3c(s2)CCCC3c2ccccc2)ccc1-n1cnc(C)c1` (configuration not stated), the half-life is 31 min.

On to `C#C[C@]1(O)CC[C@H]2[C@@H]3CCC4=CC(=O)CCC4=C3C=C[C@@]21CC`, for which the half-life was 38.2 min.

The molecule `CC(C)(C)Nc1nc(Nc2ccc(C(N)=O)cc2)cc(N)c1C#N` displayed a half-life greater than 120 min.

In turn, `COc1ccc(C)cc1Nc1c2c(nc3ccccc13)CCC2` had a half-life of 29.9 min.

The molecule `COc1ccc(CC(=O)NCC(c2cccs2)S(=O)(=O)c2ccc(Cl)cc2)cc1` (configuration not stated) came in with a half-life of 4.19 min.

`N#Cc1cc(-c2n[nH]c(-c3ccncc3)n2)ccn1` had a half-life of 90.6 min.

Regarding `CC(C)=CCC1C(=O)N(c2ccccc2)N(c2ccccc2)C1=O`, the half-life is greater than 120 min.

Turning to `CCOP(=S)(Oc1cnc(C(C)(C)C)nc1)OC(C)C` (configuration not stated), the half-life is 11.1 min.

`O=c1c2cccnc2n(-c2cccc([N+](=O)[O-])c2)c(=O)n1Cc1ccncc1` showed a half-life of 24.5 min.

The molecule `CS(=O)(=O)c1ccc([C@@H](O)[C@@H](CO)NC(=O)C(Cl)Cl)cc1` yielded a half-life greater than 120 min.

The molecule `CC(C)CCn1c(CN2CCN(C(=O)C(C)C)CC2)nc2c1c(=O)n(C)c(=O)n2C` had a half-life of 70.7 min.
